From patent publication US9718809B2, “Bisarylsulfonamides useful in the treatment of inflammation and cancer” (Kancera AB, priority 2011, dated 2017)
pIC50: −log10 of the molar value.

Columns and labels:
SW620 cells = assay: Inhibition of cancer cell proliferation, total cellular protein (Sulphorhodamine B), SW620; settings: Homo sapiens, SW-620, 72 h, read-out: IC50 based on quantitation of total cellular protein after treatment
Method: To assess the antiproliferative response elicited by the compounds of the present invention in different tumour cell lines, total cellular protein in samples was quantified using the Sulphorhodamine B kit, TOX6, (Sigma-Aldrich). The protocol is based on quantitation of total cellular protein after indicated treatments and incubation times using the Sulphorhodamine B kit, TOX6, (Sigma-Aldrich).
Briefly, after protein precipitation using TCA according to the manufacturer's instructions, the sulphorhodamine dye (80 μL/well) was added to the air-dried wells. After 20 min incubation at room temperature, the dye was discarded and the samples were gently rinsed with 1% HOAc until clear. After air drying, bound dye was solubilised in 200 μL 10 mM Tris base, and the absorbance of dye was measured at 565 nm. To quantify growth, samples were collected also at t=0 h, and the resulting absorbance was set to 100%. […]
After protein precipitation using TCA according to the manufacturer's instructions, the sulforhodamine B dye (50 μL/well) was added to the air-dried wells. […] After air drying, bound dye was solubilised in 100 μL 10 mM Tris base, and the absorbance of dye was measured at 530 nm and a background absorbance (subtract from the measurement at 530 nm) at 690 nm. To quantify growth, samples were collected also at t=0 h.

F-2,6-P2 in PANC-1 cells = assay: Quantification of F-2,6-P2 (Van Schaftingen coupled enzyme assay) in PANC-1 cells; assay type: cell-based, human; settings: Homo sapiens; PANC-1 cells; read-out: IC50 based on quantification of F-2,6-P2
Outline: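 PANC-1 cells (~25 000/well) starved 18 h in glucose-free 0.25% FBS medium, treated 1 h with compound (50 and 10 μM, or dose response from 50 μM; 0.5% DMSO), then glucose added for 2 h at 37 °C. Cells lysed in NaOH; F-2,6-P2 quantified by PPi-PFK coupled NADH-consumption spectrophotometry.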

Question: `COC(=O)c1ccc(NS(=O)(=O)c2cc(Cl)c(Cl)s2)cc1OC(C)=O` [Example 132, Methyl 2-(acetyloxy)-4-{[(4,5-dichlorothiophen-2-yl)sulfonyl]amino}benzoate] was tested. Which pIC50 (SW620 cells) did it give?
Answer: 4.93

Question: What about the pIC50 (F-2,6-P2 in PANC-1 cells) of the same compound?
Answer: 5.82
